In patent US20260191192A1, “ANTIMICROBIAL COMPOSITIONS COMPRISING PELARGONIC ACID” (LANXESS Corporation, priority 2023, published 2026):

Experiments:
[1] = tested on: mixed bacterial inoculum for home care (Table 7); test: Challenge test (preservative efficacy), mixed bacterial inoculum, simplified pool (Table 7); assay type: cell-based, Pseudomonas aeruginosa, Staphylococcus aureus; conditions: dosed 1.0 wt %
Protocol: (§1) The preservative activity in representative rinse-off and leave-on formulations was evaluated using a modification of the Personal Care Products Council (PCPC—formerly the Cosmetic, Toiletry and Fragrance Association) protocol (Machtiger, et al. 2001. Determination of the Efficacy of Preservation of Non-Eye Area Water Miscible Cosmetic and Toiletry Formulations: Collaborative Study. J of AOAC International. 84:1, 101-109).
(§2) This evaluation was conducted using a four week, two or three-cycle (i.e., two-cycle for personal care and three-cycle for home care applications) microbial preservative efficacy test (i.e., challenge test) at 25° C. to determine the preservative efficacy of each treatment. Phenoxyethanol, benzyl alcohol and pelargonic acid were tested alone and in various combinations. The pelargonic acid used in the testing was purchased from Sigma-Aldrich. Combinations of phenoxyethanol or benzyl alcohol with benchmark multifunctional booster compounds were also tested for comparison. The preservative and booster ingredients were dosed and mixed thoroughly at room temperature into various formulations, specifically different personal care formulations including a lotion (leave-on, Table 1), a micellar water (rinse-off, Table 2), and a body wash formulation (rinse-off, Table 3) and different home care formulations including a manual dishwashing formulation (Table 4) and a liquid laundry detergent formulation (Table 5). […] Carbomers are a commonly used synthetic rheological modifier in personal care products. The formulation below was made by heating the aqueous (A) and oil (B) phases separately to 75-80° C. The oil phase was then poured into the aqueous phase and mixed by a homogenizer at approximately 45° C. The formed oil-in-water emulsion was cooled to room temperature. Triethanolamine and/or diluted sodium hydroxide was used to adjust the final pH to 6.3 or 6.5 (as indicated in the examples below).
(§3) After dosing, the samples were divided into two separate five gram aliquots. One aliquot was inoculated with 50 μl of a diluted bacterial pool, and the second aliquot was inoculated with 50 μl of a diluted fungal pool as described below. Unpreserved product samples were included as a growth control.
(§4) For personal care products, a mixed bacterial inoculum was prepared using 24-hour cultures of the test bacteria (Table 6) grown in trypticase soy broth (TSB). For home care products, a mixed bacterial inoculum was prepared using 24-hour cultures of the test bacteria either from Table 6 (full pool) or Table 7 (simplified pool) grown in trypticase soy broth (TSB). Details are disclosed in the home care examples below. Equal volumes of the bacterial test strains were combined and diluted one to ten in phosphate buffer to obtain an inoculum of approximately 5×10^7 to 5×10^8 colony forming units per ml (cfu/ml). The test samples were inoculated with 1% of the mixed bacterial inoculum. For both personal care and home care products, a mixed fungal inoculum was prepared using cell suspensions of the yeast Candida albicans ATCC #10231 and the mold Aspergillus brasiliensis ATCC #16404 in phosphate buffer. Equal volumes of the fungal test strains were combined and diluted one to ten with phosphate buffer to obtain an inoculum of approximately 5×10^6 to 5×10^7 cfu/ml. The test samples were inoculated with 1% of the mixed fungal inoculum.
(§5) For personal care products, the samples were subjected to two microbial challenges at time zero and inoculated a second time after seven days. For home care products, the samples were subjected to three microbial challenges at time zero and inoculated a second and third time after seven and fourteen days, respectively. The number of microorganisms added to each sample was determined by a standard Most Probable Number (MPN) determination in Trypticase Soy Broth (TSB) for bacteria and Potato Dextrose Broth (PDB) for fungi. Samples were incubated at 25° C. for the test duration of four weeks.

[2] = ZenBio Cupric Ion Chelating (CIC) Assay; assay type: physicochemical; conditions: calculated from a EDTA calibration curve, Pelargonic Acid at 775 μM
Protocol: The chelation property of the pelargonic acid was measured by using the ZenBio Cupric Ion Chelating (CIC) Assay (Cat #AOX-16). The assay measured the capacity of the pelargonic acid to chelate free cupric ions in solution, thereby inhibiting Cu(II) binding to pyrocatechol violet (PV) for generating a highly colored complex. The absorbance of the Cupric-PV complex was measured at a wavelength of 632 nm. The cupric ion chelating activity was determined as the percent of total PV over the Cu(II) binding. Ethylenediaminetetraacetic acid (EDTA), a well-known chelating agent, was used as a positive control. A series of EDTA with 7 different concentrations from 0 to 1000 μM were prepared and their corresponding absorbance measured and used as the calibration curve (Cupric ion chelating (%) vs. EDTA concentration). Percent cupric ion chelating was determined following the following calculations and Equation 1. The background absorbance value by averaging the absorbance values of the three background wells (no CuSO4 or sample). The average background absorbance was then subtracted from all the sample absorbance values. The maximal absorbance value (Absmax) was determined by averaging the absorbance values of the three wells containing CuSO4, PV and assay buffer. Abstest in Equation 1 is the absorbance of the test sample.
The calibration curve (Cupric ion chelating (%) vs. EDTA concentration) was fit by using a polynomial curve after log 10 transforming the concentrations (R2>0.98).

[3] = tested on: bacteria (Table 6 pool) and fungi; test: Challenge test, overall result (full bacteria pool and fungi); assay type: cell-based
Protocol: as §1, §2, §3, §4, §5

[4] = tested on: mixed fungal inoculum: Candida albicans ATCC #10231 and Aspergillus brasiliensis ATCC #16404; test: Challenge test (preservative efficacy), mixed fungal inoculum; assay type: cell-based
Protocol: as §1, §2, §3, §4, §5

[5] = tested on: bacteria (Table 7 pool) and fungi; test: Challenge test, overall result (simplified bacteria pool and fungi); assay type: cell-based; conditions: dosed 1.0 wt %
Protocol: as §1, §2, §3, §4, §5

[6] = tested on: mixed bacterial inoculum (Table 6); test: Challenge test (preservative efficacy), mixed bacterial inoculum, full pool (Table 6); assay type: cell-based
Protocol: as §1, §2, §3, §4, §5

[7] = body wash, pH 6.5, Example 1E, dosed 0.5 wt %
[8] = liquid laundry detergent, pH 7.5, Example 1H, dosed 1.0 wt %
[9] = lotion with carbomer, pH 6.3, Example 1A, dosed 0.5 wt %
[10] = lotion with carbomer, pH 6.3, Example 1A, dosed 1.0 wt %
[11] = lotion with carbomer, pH 6.5, Example 1I, total dosing 0.8 wt %
[12] = micellar water, pH 6.0, Example 1B, dosed 0.5 wt %
[13] = micellar water, pH 6.0, Example 1C, dosed 0.3 wt %

CCCCCCCCC(=O)O [Pelargonic Acid, nonanoic acid]
Bacteria growth rating Result ([1]; liquid laundry detergent, pH 7.5, simplified bacteria pool, Example 1G): Fail (growth rating score caused by bacteria of 2 or more at days 21-28 of the testing period) | Bacteria growth rating Result ([1]; manual dishwashing formulation, pH 5.5, simplified bacteria pool, Example 1F): Fail (growth rating score caused by bacteria of 2 or more at days 21-28 of the testing period) | Calculated EDTA equivalent [2]: 667 µM | Overall Result [3, 7]: Fail | Overall Result [3, 8]: Fail | Overall Result [3, 9]: Fail | Overall Result [3, 10]: Fail | Overall Result [3, 11]: Fail | Overall Result [3, 12]: Fail | Overall Result [3, 13]: Fail | Fungi growth rating Result [4, 7]: Pass (growth rating score caused by fungi of 2 or less at days 21-28 of the testing period) | Fungi growth rating Result ([4]; liquid laundry detergent, pH 7.5, Example 1G, dosed 1.0 wt %): Fail (growth rating score caused by fungi of more than 2 at days 21-28 of the testing period) | Fungi growth rating Result [4, 8]: Fail (growth rating score caused by fungi of more than 2 at days 21-28 of the testing period) | Fungi growth rating Result [4, 9]: Fail (growth rating score caused by fungi of more than 2 at days 21-28 of the testing period) | Fungi growth rating Result [4, 10]: Fail (growth rating score caused by fungi of more than 2 at days 21-28 of the testing period) | Fungi growth rating Result [4, 11]: Fail (growth rating score caused by fungi of more than 2 at days 21-28 of the testing period) | Fungi growth rating Result ([4]; manual dishwashing formulation, pH 5.5, Example 1F, dosed 1.0 wt %): Fail (growth rating score caused by fungi of more than 2 at days 21-28 of the testing period) | Fungi growth rating Result [4, 12]: Fail (growth rating score caused by fungi of more than 2 at days 21-28 of the testing period) | Fungi growth rating Result [4, 13]: Fail (growth rating score caused by fungi of more than 2 at days 21-28 of the testing period) | Overall Result ([5]; liquid laundry detergent, pH 7.5, Example 1G): Fail | Overall Result ([5]; manual dishwashing formulation, pH 5.5, Example 1F): Fail | Bacteria growth rating Result [6, 7]: Fail (growth rating score caused by bacteria of 2 or more at days 21-28 of the testing period) | Bacteria growth rating Result ([6]; liquid laundry detergent, pH 7.5, full bacteria pool, Example 1H, dosed 1.0 wt %): Fail (growth rating score caused by bacteria of 2 or more at days 21-28 of the testing period) | Bacteria growth rating Result [6, 9]: Fail (growth rating score caused by bacteria of 2 or more at days 21-28 of the testing period) | Bacteria growth rating Result [6, 10]: Fail (growth rating score caused by bacteria of 2 or more at days 21-28 of the testing period) | Bacteria growth rating Result ([6]; lotion with carbomer, pH 6.3, Example 1D, dosed 0.8 wt %): Fail (growth rating score caused by bacteria of 2 or more at days 21-28 of the testing period) | Bacteria growth rating Result [6, 11]: Fail (growth rating score caused by bacteria of 2 or more at days 21-28 of the testing period) | Bacteria growth rating Result ([6]; micellar water, pH 6.0, bacteria inoculation ~10^7 cfu/ml, Example 1B, dosed 0.5 wt %): Fail (growth rating score caused by bacteria of 2 or more at days 21-28 of the testing period) | Bacteria growth rating Result ([6]; micellar water, pH 6.0, bacteria inoculation ~10^8 cfu/ml, Example 1C, dosed 0.3 wt %): Fail (growth rating score caused by bacteria of 2 or more at days 21-28 of the testing period)
